Literature values, collected in patent US9211305B2, “Pharmaceutical compositions with glycosaminoglycans and use thereof in the treatment of chronic ulcers” (LABORATORIOS FARMACEUTICOS ROVI S.A., priority 2008, dated 2015).

Key:
[1] = in vivo; cited from earlier work
[2] = tested on: factor Xa; settings: commercial products; cited from earlier work
[3] = Ph. Eur. 6th Edition; cited from earlier work

Row | Substance | Plasma Half-Life [1] [h] | Plasma Half-Life Range [1] [h] | anti-factor Xa activity [2] | Anti-coagulating activity [3] [IU/mg]
1 | Enoxaparin | 4.2 | 4.0 to 4.4 | 90-125 IU/mg | –
2 | Heparin Sodium | – | – | – | ≥ 150
3 | Dalteparin | 2.5 | 2.3 to 2.8 | 110-210 IU/mg | –
4 | Nadroparin | 3.7 | 3.7 | – | –
5 | Tinzaparin | 3.0 | 3.0 | 70-120 IU/mg | –
